Paper PMC8321398, “The discovery of a novel series of compounds with single-dose efficacy against juvenile and adult Schistosoma species” (PLoS Neglected Tropical Diseases, 2021)
Values after ≈ are worked out from the molar mass of the structure shown. Values joined by “and” are separate entries in the source; they are usually repeats but may differ in a detail not shown here. Equal entries are not always repeated. Where two headings read alike, the source gives them in different places.

Legend:
Kinetic solubility = format: physicochemical
Text: Table 4 in vitro, physicochemical and in vivo properties of compounds pictured in Fig 10. | column: Measured physicochemical properties / Kinetic solubility, pH 7.4 (uM); Measured physicochemical properties / Kinetic solubility, FaSSIF (uM); Measured physicochemical properties / Kinetic solubility, FeSSIF (uM)

Mouse pharmacokinetics = format: in vivo; settings: for Clobs / AUC(0-inf) / Vd / half-life: 0.5 mg/kg iv, in a mixture of 5 compounds; for scaled plasma level, fold above the calculated whole blood IC50: 24 h; for Plasma conc @ 24 h after oral dose / bioavailability: mixture of 5 compounds; for AUC(0-inf) / Vd / bioavailability / half-life / concentration at 24 h: male, Swiss albino, plasma; for Vd: read-out: Vss; for bioavailability: 2.5 mg/kg oral, calculated values > 100% shown as 100; for half-life: iv, sampled over 24 h; for concentration at 24 h: oral
Experimental: Routine pharmacokinetics was carried out as previously described [24] with the following modifications: Swiss albino male mice of average weight 30 g with three animals per experiment. The final vehicle was 10% DMSO, 90% 50 mM Na2HPO4 with 0.5% Tween-80. Compounds were dosed singly (at a variety of doses as noted in the text) or more commonly in mixtures of 5 at 1 mg/kg per compound iv into the lateral tail vein or 2.5 mg/kg per compound by oral gavage. ~30 μl blood samples were taken by venepuncture, into heparinized capillary tubes and subsequently transferred into 0.5 ml micro-centrifuge tubes. Collection time points were 5 min (iv only), 15 min, 30 min, 1 h, 2 h, 4 h, 8 h & 24 h. All blood samples were processed for plasma by centrifugation at 4,000 rpm for 10 min at 4°C within half an hour of collection. Plasma samples were stored at -20°C until bioanalysis.
Prior to LC-MS analysis, all samples were extracted using protein precipitation using acetonitrile as the extraction solvent. For each batch of samples, a calibration line spanning an appropriate concentration range was created by spiking the compound of interest into blank matrix. The calibration line included 10 evenly spaced points. […] Where necessary, additional dilution QCs were included to validate the dilution process. Within each batch at least 3 study samples were assayed pre and post dilution to assess whether there was any impact from the presence of dosing vehicle in the samples. A linear regression was performed on peak area response ratios (analyte:IS) and the results used to back-calculate analyte concentrations. A batch of samples were considered acceptable if 75% of the calibration samples and 66% of the standard QC samples were within 20% of nominal. The linear range of the assay was defined by the calibration line ±20% i.e. the maximum reportable concentration was 120% of the highest concentration calibration sample that passed acceptance criteria. A metric plot of the IS response was reviewed to ensure the integrity of the study sample data.

[1] = Plasma protein binding in human plasma at 10 uM, equilibrium dialysis; format: in vitro ADME; settings: for recovery at 6 h, 10 µM: human, human plasma, pH 7.4
Experimental: Each experiment was performed in duplicate for the compound being tested. A working solution of compound was prepared from 10 μL of 10 mM solution in DMSO + 190 μL 40:60 MeCN:Water. A Total solution was prepared from 12 μL of working solution + 588 μL plasma (compound conc: 10 μM, DMSO: 0.1%, ACN:0.76%). In an equilibrium dialysis chamber, Total solution (200 μL) was added to the plasma chamber and PBS pH 7.4 (350 μL) was added to the buffer chamber. The chamber was then incubated at 37°C for 6 h with constant shaking at 400 rpm (Thermomixer comfort, Eppendorf). Aliquots were removed from both plasma and buffer chambers and the following test samples prepared: Blank: blank Plasma (20 μL) + blank buffer (60 μL), Buffer: blank plasma (20 μL) + test buffer (60 μL), Plasma: test plasma (20 μL) + blank buffer (60 μL), Total: total sample (20 μL) + blank buffer (60 μL). Ice-cold acetonitrile (160 μL), containing a suitable standard was added to all samples, they were shaken vigorously and centrifuged at 4,000 rpm for 20 min at 15°C. Supernatant (110 μL) from each sample was diluted with water (110 μL) and the sample analysed by LC-MS/MS.
% Free = 100 × (AREA in buffer × dilution factor)/(AREA in Plasma × dilution factor)
% Recovery = 100 ×[(Avg AREA in buffer × dilution factor) + (Avg AREA in Plasma × dilution factor)] / (Avg AREA in Total × dilution factor)

[2] = Metabolic stability in human hepatocytes; format: in vitro ADME; settings: hepatocytes (suspension); for remaining at 0.5 h, 1 µM: pH 7.4, 30 min incubation, read-out: Human hepatocyte % remaining at 30 min; for remaining at 1.5 h, 1 µM: pH 7.4, 90 min incubation, read-out: Human hepatocyte % remaining at 90 min
Experimental: (§1) 100 μM compound stock solution was prepared from 5 μL of 4 mM stock in DMSO + 195 μL MeCN. Working solution (2 μM compound) was prepared using 10 μL of 100 μM stock + 490 μL buffer pH 7.4 (KHB supplemented with CaCl2, NaHCO3, HEPES, fructose, glycine; pH 7.4).
(§2) Working solution (25 μL, 2 μM) was added in duplicate to wells in a 0.5 mL per well, 96 well plate which was preincubated to reach 37°C. Hepatocyte suspension (25 μL) was added to each plate, and the plate incubated (37°C, 95% relative humidity with 5% CO2 supply) under gentle mixing (Thermomixer @300 rpm). After designated time periods, ice-cold MeCN (250 μL) was added with a suitable standard. For T = 0 min, ice-cold MeCN (250 μL) with suitable standard was added to the working solution (2 μM) and hepatocyte suspension (25 μL) added. The plates for each time point were shaken, sonicated for 5 mins and kept at 4°C until the final plate was processed. The plates were centrifuged at 4,000 rpm for 20 min, supernatant (110 μL) was mixed with water (110 μL) and the samples analysed using LC-MS/MS.

[3] = Metabolic stability in mouse hepatocytes; format: in vitro ADME; settings: hepatocytes (suspension); for remaining at 0.5 h, 1 µM: pH 7.4, 30 min incubation, read-out: Mouse hepatocyte % remaining at 30 min; for remaining at 1.5 h, 1 µM: pH 7.4, 90 min incubation, read-out: Mouse hepatocyte % remaining at 90 min
Experimental: as §1, §2

[4] = In vivo efficacy, mouse model of juvenile (21-day old) S. mansoni infection; settings: female, CD1, plasma, mouse, Juvenile infection, read-out: Plasma conc @24 h (efficacy experiment)
Experimental: (§3) Prior to in vivo efficacy experiments, a single animal was given a dose of drug (using the same formulation) that was twice as large as that planned for use in the efficacy experiments and was observed periodically for adverse clinical signs for 24h by trained veterinarians. Adverse clinical signs checked include postural defect, vocalization, oculo-nasal discharge, hypersalivation, change in activity, abnormal gait, respiration and pulse, piloerection, loss of pupillary reflex, eyelid reflex, chromodacryorrhea, reaction to handling, tremor, convulsions, prostration, diarrhoea, cachexia, emaciation. […] In vivo efficacy was assessed in female CD1 mice using methods based on those previously described. Mice were infected subcutaneously with 150 cercariae. Test compounds were suspended in 7% Tween-80 / 3% Ethanol / double distilled water and drug dispersal was facilitated by vortexing and using a sonicating water bath (Formulation “Aqueous”). Alternatively, drugs were first dissolved in DMSO, then diluted with corn oil to give a 1:19 DMSO:corn oil solution/suspension of test compound (Formulation “Corn oil”). Dosing was by oral gavage. Mice in the negative control groups were given the drug suspension vehicle only. Positive controls for treatment of adult, day 42 old, infections were treated with PZQ and those for juvenile, day 21 old, infections with artemether, which unlike PZQ is effective against the juvenile worm infections in mice. During and following treatment, mice were closely observed for any ill effects by staff experienced in animal handling. This involved individuals who were blinded to the treatment groups. Effects they were trained to look for included hunching, immobility, piloerection, subdued behaviour, diarrhoea and loss of body condition. None were seen. Worms were recovered by portal perfusion with citrate saline 8–14 days post treatment and counted. Differences between groups relative to the non-drug treated controls were assessed for statistical significance by Student’s unpaired t-test using GraphPad Prism Software. P values are presented as follows:- ns–P > 0.05 (not significant), * P ≤ 0.05, ** P ≤ 0.01, *** P ≤ 0.001, **** P ≤ 0.0001.
(§4) For pharmacokinetic analysis during the in vivo efficacy experiments individual animals were only sampled once. Samples were taken from one animal in each experimental group at each of 1, 4, 8 h and samples from two animals in each group were taken at 24 h.

[5] = test system: S. mansoni juvenile worms; experiment: as above; settings: for efficacy in vivo against juvenile worm infection / Worms remaining / clearing juvenile worm infections in vivo / worm reduction: mouse; for efficacy in vivo against juvenile worm infection: 21-day old infections, single oral dose, Aqueous formulation (Fig 8); for Worms remaining: Juvenile infection; for in vivo EC50 against juvenile worms: mouse model, single oral dose (Fig 9C); for clearing juvenile worm infections in vivo: 12.5 mg/kg oral single dose (Fig 9D); for worm reduction: juvenile worms
Experimental: as §3, §4

[6] = pH 7.4, read-out: Kinetic solubility, pH 7.4
[7] = oral 25 mg/kg, formulation corn oil
[8] = FaSSIF, pH 6.5, read-out: Kinetic solubility, FaSSIF
[9] = FeSSIF, pH 5, read-out: Kinetic solubility, FeSSIF
[10] = oral 12.5 mg/kg, formulation corn oil
[11] = oral 6.25 mg/kg, formulation corn oil
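Wherever Clobs is given: three mice per experiment, dosed in 10% DMSO with 50 mM Na2HPO4 buffer plus Tween-80, plasma levels quantified by LC-MS against a calibration line prepared in blank matrix.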
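Wherever Plasma conc @ 24 h after oral dose is given: three mice per experiment, dosed in 10% DMSO with 50 mM Na2HPO4 buffer plus Tween-80, plasma levels quantified by LC-MS against a calibration line prepared in blank matrix.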
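Wherever Vss is given: three mice per experiment, dosed in 10% DMSO with 50 mM Na2HPO4 buffer plus Tween-80, plasma levels quantified by LC-MS against a calibration line prepared in blank matrix.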
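Wherever scaled plasma level, fold above the calculated whole blood IC50 is given: three mice per experiment, dosed in 10% DMSO with 50 mM Na2HPO4 buffer plus Tween-80, plasma levels quantified by LC-MS against a calibration line prepared in blank matrix.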

SMILES | solubility kinetic at 24 h (Kinetic solubility; [6]) [µM] | AUC(0-inf) (Mouse pharmacokinetics) [ng·h/mL] | Vd (Mouse pharmacokinetics) [L/kg] | bioavailability (Mouse pharmacokinetics) [%] | half-life (Mouse pharmacokinetics; 0.5 mg/kg) [h] | Human plasma protein %binding [1] [%] | recovery at 6 h, 10 µM [1] [%] | remaining at 0.5 h, 1 µM [2] [%] | remaining at 0.5 h, 1 µM [3] [%] | remaining at 1.5 h, 1 µM [3] [%] | concentration at 24 h ([4]; oral 50 mg/kg, formulation Aq) [ng/mL] | efficacy in vivo against juvenile worm infection [5] | Worms remaining ([5]; oral 50 mg/kg, formulation Aq) [%] | Clobs (Mouse pharmacokinetics) [mL/min/kg] | remaining at 1.5 h, 1 µM [2] [%] | solubility kinetic at 24 h (Kinetic solubility; [8]) [µM] | solubility kinetic at 24 h (Kinetic solubility; [9]) [µM] | concentration at 24 h [4, 10] [ng/mL] | in vivo EC50 against juvenile worms [5] | Worms remaining [5, 10] [%] | further results
CC(C)c1nc2cnc(-c3ccc(F)c(C(F)(F)F)c3)cn2c1-c1c(F)cc(O)cc1F [LSHTM-3520] | 12.7 (≈ 5.73 µg/mL) | 500 | 7.1 | 50 | 7 | 99.9895 | 97.1 | 52 | 65 | 44 | 208 | effective | 62 | – | – | – | – | – | – | – | Clobs (Mouse pharmacokinetics; 0.5 mg/kg): 18.3 mL/min/kg and 18 mL/min/kg; scaled plasma level, fold above the calculated whole blood IC50 (Mouse pharmacokinetics; 50 mg/mL (so in the source)): 1.3 fold; scaled plasma level, fold above the calculated whole blood IC50 (Mouse pharmacokinetics; 200 mg/mL (so in the source)): 5.3 fold; Plasma conc @ 24 h after oral dose (Mouse pharmacokinetics; […]): 8.1 ng/mL; concentration at 24 h (Mouse pharmacokinetics; 50 mg/mL, scaled from […] to 50 mg/mL (so in the source), linear kinetics assumed, read-out: plasma level after 24 h scaled from the low-dose oral PK experiment): 160 ng/mL; concentration at 24 h (Mouse pharmacokinetics; 200 mg/mL, scaled from […] to 200 mg/mL (so in the source), linear kinetics assumed, read-out: plasma level after 24 h scaled from the low-dose oral PK experiment): 640 ng/mL; half-life at 1 µM ([3]; pH 7.4, calculated from % remaining): 1.25 h; concentration at 24 h ([4]; oral 200 mg/kg, formulation Aq): 1980 ng/mL; Worms remaining ([5]; oral 200 mg/kg, formulation Aq): 16%
CC(C)c1nc2cnc(-c3ccc(F)c(C(F)(F)F)c3)cn2c1-c1ccc2[nH]ncc2c1F [LSHTM-3604] | 0.834 (≈ 0.381 µg/mL) | 1900 | 3.4 | 60 | 10.5 | 99.9973 | 92.4 | 99 | 89 | 80 | 505 | effective | 12 | 4.33 | 98 | – | – | – | – | – | solubility kinetic (Kinetic solubility; FaSSIF, read-out: Kinetic solubility, FaSSIF): 200 µM (≈ 91.5 µg/mL); solubility kinetic (Kinetic solubility; FeSSIF, read-out: Kinetic solubility, FeSSIF): 200 µM (≈ 91.5 µg/mL); scaled plasma level, fold above the calculated whole blood IC50 (Mouse pharmacokinetics; efficacy dose (dose not given)): 9.4 fold; concentration at 24 h (Mouse pharmacokinetics; plasma level after 24 h scaled from […] dose, scaled to the efficacy dose (dose not given), read-out: plasma level after 24 h scaled from 2.5 mg/kg dose): 1430 ng/mL; concentration at 24 h [4, 7]: 223 ng/mL; Worms remaining [5, 7]: 13%
Fc1c(-c2c(C(F)(F)F)nc3cnc(-c4cccc(C(F)(F)C(F)(F)F)c4)cn23)ccc2[nH]ncc12 [LSHTM-3608] | 0.704 (≈ 0.363 µg/mL) | 6200 | 4 | 100 | 37.1 | 100 | 97.8 | – | – | 88 | – | – | – | 1.5 | 98 | 200 (≈ 103 µg/mL) | 196 (≈ 101 µg/mL) | 879 | below 6.25 mg/kg | 0 | clearing juvenile worm infections in vivo [5]: extremely effective; worm reduction ([5]; single oral dose 12.5 mg/kg): 100%
Fc1ccc(-c2cn3c(-c4ccc5[nH]ncc5c4F)c(C(F)(F)F)nc3cn2)cc1C(F)(F)F [LSHTM-3642, 3-(4-fluoro-1H-indazol-5-yl)-6-(4-fluoro-3-(trifluoromethyl)phenyl)-2-(trifluoromethyl)imidazo[1,2-a]pyrazine] | 0.854 (≈ 0.413 µg/mL) | 5500 | 8.7 | 83 | – | 99.9895 | 97.4 | – | – | 90 | – | – | – | 2.17 | 105 | 196 (≈ 94.7 µg/mL) | 197 (≈ 95.2 µg/mL) | 1320 | – | 5 | Plasma conc @ 24 h after oral dose (Mouse pharmacokinetics): 227 ng/mL; concentration at 24 h ([4]; oral 25 mg/kg, formulation Aq): 1700 ng/mL; Worms remaining ([5]; oral 25 mg/kg, formulation Aq): 1.8%
Fc1ccc(-c2cn3c(-c4ccc5[nH]ncc5c4F)c(C(F)(F)F)nc3cn2)cc1C(F)(F)C(F)(F)F [LSHTM-3645] | 0.264 (≈ 0.141 µg/mL) | 2400 | 6.4 | 100 | 23.4 | 100 | 85.8 | – | – | 94 | – | – | – | 3.5 | 105 | 199 (≈ 106 µg/mL) | 200 (≈ 107 µg/mL) | 984 | below 6.25 mg/kg | 0 | concentration at 24 h [4, 11]: 708 ng/mL; clearing juvenile worm infections in vivo [5]: extremely effective; Worms remaining [5, 11]: 1.8%; worm reduction ([5]; single oral dose 6.25 mg/kg): 98%
